Measurements from patent US8541442B2, “Indole derivatives as anticancer agents” (Janssen Pharmaceutica N.V., priority 2009, dated 2013).

Tests used:
[1] = tested on: A2780 ovarian cancer cells; assay: Alamar Blue cell proliferation assay, A2780; type: cell-based, human; details: 4-day incubation; for IC50: Homo sapiens, A2780, 96 h, read-out: A2780 cell proliferation inhibition pIC50 (converted)
Method: The human A2780 ovarian cancer cells were a kind gift from Dr. T. C. Hamilton (Fox Chase Cancer Centre, Pennsylvania, U.S.A.). The cells were cultured in RPMI 1640 medium supplemented with 2 mM L-Glutamine, 50 μg/ml gentamicin and 10% fetal calf serum.
Potassium Phosphate Buffer 0.1 M (PPB) was made as follows: 2.72 gram KH2PO4 and 13.86 gram K2HPO4 were dissolved in 500 ml milli-Q H2O, the pH was adjusted to pH 7.4 and the volume was brought to 1 liter with milli-Q H2O; the buffer was filter sterilised and stored at room temperature. Resazurin stock solution (PPB-A) was prepared fresh by dissolving 45 mg resazurin in 15 ml PBS. 30 mM potassium ferricyanide (PPB-B) was prepared by dissolving 0.987 gram potassium ferricyanide in 100 ml PPB. 30 mM potassium ferrocyanide (PPB-C) was prepared by dissolving 1.266 gram potassium ferrocyanide in 100 ml PPB.
Mixture of PPB-A, PPB-B and PPB-C was prepared by mixing equal volumes of the respective solutions. Resazurin work solution (herein termed “Alamar Blue” solution) was prepared by diluting said mixture 20×(vol/vol) in PPB and filter sterilising; the Alamar Blue solution could be kept at 4° C. for a maximum of 2 weeks.
(§1) For experiments in 384 wells plates the cells were seeded at a density of 5×10^3 cells/ml in Falcon 384-well culture plates (Life Technologies, Merelbeke, Belgium), black with clear bottom, in 45 μl culture medium. Cells were allowed to adhere to plastic for 24 hr. The tested compound was pre-diluted (1/50 in culture medium) and 5 μl pre-diluted compound was added to the wells. Following 4-day incubation, 10 μl of the Alamar Blue solution was added to each well and the cells were further incubated for 5 hrs (A2780) at 37° C. The fluorescence intensity was measured for each well with a Fluorescence plate reader (Fluorskan, Labsystems, 540 nm excitation and 590 nm emission)
(§2) The antiproliferative activity was calculated as percentage of remaining viable cells in treated versus control (untreated cells) conditions. Within an experiment, the result for each experimental condition is the mean of 3 replicate wells. When appropriate, the experiments were repeated to establish full concentration-response curves. When appropriate, IC50-values (concentration of the drug, needed to reduce cell growth to 50% of the control) were computed using probit analysis for graded data (Finney, D. J., Probit Analyses, 2nd Ed. Chapter 10, Graded Responses, Cambridge University Press, Cambridge 1962). Herein the effects of test compounds are expressed as pIC50 (the negative log value of the IC50-value (M)) (see Table 5A).

[2] = tested on: non-small cell lung cancer cell line H1299; assay: Alamar Blue cell proliferation assay, H1299; type: cell-based; details: for H1299 cell proliferation inhibition pIC50: H1299 cells; for IC50: Homo sapiens, NCI-H1299, H1299 cells, read-out: H1299 cell proliferation inhibition pIC50 (converted)
Method: as §1, §2
(§3) Compounds were also tested according to the above protocol but using other cell lines: colorectal cancer cell line HCT116, non-small cell lung cancer cell line H1299, human prostate cancer cell line DU145.

[3] = tested on: colorectal cancer cell line HCT116; assay: Alamar Blue cell proliferation assay, HCT116; type: cell-based; details: for HCT116 cell proliferation inhibition pIC50: HCT116 cells; for IC50: Homo sapiens, HCT-116, HCT116 cells, read-out: HCT116 cell proliferation inhibition pIC50 (converted)
Method: as §1, §2, §3

p53 in A2780 cells = assay: p53 ELISA (preservation of p53 in A2780 cells); type: cell-based, human; details: 16 hours treatment; for minimal effective concentration: Homo sapiens, A2780, 16 h, read-out: p53-elisa LAD (lowest dose giving at least 140% of the value for p53 present in the control)
Method: The capacity of the present compounds to preserve p53 in A2780 cells was measured with the p53 enzyme linked immunosorbent assay. The p53 assay is a “sandwich” enzyme immunoassay employing two polyclonal antibodies. A polyclonal antibody, specific for the p53 protein, has been immobilized onto the surface of the plastic wells. Any p53 present in the sample to be assayed will bind to the capture antibody. The biotinylated detector polyclonal antibody also recognizes p53 protein, and will bind to any p53, which has been retained by the capture antibody. The detector antibody, in turn, is bond by horseradish peroxidase-conjugated streptavidin. The horseradish peroxidase catalyses the conversion of the chromogenic substrate o-phenylene diamine, the intensity of which is proportional to the amount of p53 protein bond to the plate. The colored reaction product is quantified using a spectrophotometer. Quantitation is achieved by the construction of a standard curve using known concentrations of purified recombinant HIS tagged p53 protein (see example C.1.).
A2780 cells (ATCC) were cultivated in RPMI 1640 supplemented with 10% fetal calf serum (FCS), 2 mM L-glutamine and gentamycin at 37° C. in a humidified incubator with 5% CO2.
A2780 cells were seeded at 20.000 cells per well in a 96 well plate, cultured for 24 hours and treated with compound for 16 hours at 37° C. in a humidified incubator. After incubation, the cells were washed once with phosphate-buffered saline and 30 μl, per well, low salt RIPA buffer (20 mM tris, pH7.0, 0.5 mM EDTA, 1% Nonidet P40, 0.5% DOC, 0.05% SDS, 1 mM PMSF, 1 μg/ml aprotinin and 0.5 μ/ml leupeptin) was added. Plates were placed on ice for 30 minutes to complete the lysis. p53 protein was detected in de lysates by using the sandwich ELISA, described below.
High binding polystyrene EIA/RIA 96 well plates (Costar 9018) were coated with the capture antibody pAb1801 (Abcam ab28-100) at a concentration of 1 μg/ml in coating buffer (0.1 M NaHCO3 pH8.2), 50 μl per well. The antibody was allowed to adhere overnight at 4° C. Coated plates were washed once with phosphate-buffered saline (PBS)/0.05% Tween 20 and 300 μl of blocking buffer (PBS, 1% bovine serum albumins (BSA)) was added, for an incubation period of 2 hours at room temperature. Dilutions of purified recombinant HIS tagged p53 protein, ranging from 3-200 ng/ml, were made in blocking buffer and used as standards.
Plates were washed twice with PBS/0.05% Tween 20 and blocking buffer or standards were added at 80 μl/well. To the standards, 20 μl of lysis buffer was added. The samples were added to the other wells at 20 μl lysate/well. After an overnight incubation at 4° C., plates were washed twice with PBS/0.05% Tween 20. Aliquots of 100 μl secondary polyclonal antibody p53(FL-393) (Tebubio, sc-6243) at a concentration of 1 μg/ml in blocking buffer were added to each well and allowed to adhere for 2 hours at room temperature. Plates were washed three times with PBS/0.05% Tween 20. Detection antibody anti-rabbit HRP (sc-2004, Tebubio) at 0.04 μg/ml in PBS/1% BSA was added and incubated for 1 hour at room temperature. Plates were washed three times with PBS/0.05% Tween 20 and 100 μl of substrate buffer was added (substrate buffer was prepared shortly before use by adding 1 tablet of 10 mg o-phenylene diamine (OPD) from Sigma and 125 μl 3% H2O2 to 25 ml OPD buffer: 35 mM citric acid, 66 mM Na2HPO4, pH5.6). After 5 to 10 minutes, colour reaction was stopped by adding 50 μl stop buffer (1 M H2SO4) per well. The absorbance at dual wavelengths of 490/655 nm was measured using a Biorad micro plate reader and the results were then analyzed.
For each experiment, controls (containing no drug) and a blank incubation (containing no cells or drugs) were run in parallel. The blank value was subtracted from all control and sample values. For each sample, the value of p53 (in absorbance units) was expressed as the percentage of the value for p53 present in the control. […]

[4] = tested on: human prostate cancer cell line DU145; assay: Alamar Blue cell proliferation assay, DU145; type: cell-based; details: for DU145 cell proliferation inhibition pIC50: DU145 cells; for IC50: Homo sapiens, DU-145, DU145 cells, read-out: DU145 cell proliferation inhibition pIC50 (converted)
Method: as §1, §2, §3

Row | Compound | A2780 cell proliferation inhibition pIC50 [1] | H1299 cell proliferation inhibition pIC50 [2] | HCT116 cell proliferation inhibition pIC50 [3] | p53-elisa LAD (lowest dose giving at least 140% of the value for p53 present in the control) (p53 in A2780 cells) | DU145 cell proliferation inhibition pIC50 [4] | IC50 [1] | IC50 [4] | IC50 [2] | IC50 [3] | minimal effective concentration (p53 in A2780 cells)
1 | Cc1cc(Nc2ccnc3c2CCC3O)ccc1NCCc1c[nH]c2c(C(C)O)cccc12 (single isomer, unassigned) [Compound 12] | 7.20 | 5.2 | 6.06 | 0.10 µM | – | – | – | – | – | –
2 | Cc1cc(Nc2ccnc3c2CCC3O)ccc1NCCc1c[nH]c2c(C(C)O)cccc12 (single isomer, unassigned) [Compound 15] | 7.27 | 5.82 | 6.69 | 0.10 µM | – | – | – | – | – | –
3 | Cc1cc(Nc2ccnc3c2CCC3O)ccc1NCCc1c[nH]c2c(CCO)cccc12 (single isomer, unassigned) [Compound 23] | 6.52 | 5.61 | 5.53 | 3.00 µM | 5 | – | – | – | – | –
4 | COC1CCc2c(Nc3ccc(NCCc4c[nH]c5c(C(C)(C)O)cccc45)cc3)ccnc21 (single isomer, unassigned) [Compound 24] | – | – | – | 0.03 µM | – | 0.0661 µM | 0.295 µM | 0.234 µM | 0.038 µM | –
5 | COC1CCc2c(Nc3ccc(NCCc4c[nH]c5c(C(C)(C)O)cccc45)cc3)ccnc21 (single isomer, unassigned) [Compound 25] | – | – | – | 0.10 µM | – | – | – | – | – | –
6 | Cc1cc(Nc2ccnc3c2CCC3(C)O)ccc1NCCc1c[nH]c2c(C(C)(C)O)cccc12 (single isomer, unassigned) [Compound 26] | 7.11 | 6.27 | 7.26 | 0.10 µM | 6.18 | – | – | – | – | –
7 | Cc1cc(Nc2ccnc3c2CCC3(C)O)ccc1NCCc1c[nH]c2c(C(C)(C)O)cccc12 (single isomer, unassigned) [Compound 27] | – | – | – | – | – | 0.141 µM | 1 µM | 1.02 µM | 0.0832 µM | 0.1 µM
8 | COC1CCc2c(Nc3ccc(NCCc4c[nH]c5c(C(C)(C)O)cccc45)c(C)c3)ccnc21 (single isomer, unassigned) [Compound 28] | 6.89 | 6.73 | 7.11 | 0.10 µM | 6.52 | – | – | – | – | –
9 | COC1CCc2c(Nc3ccc(NCCc4c[nH]c5c(C(C)(C)O)cccc45)c(C)c3)ccnc21 (single isomer, unassigned) [Compound 29] | 7.14 | 6.67 | 7.37 | 0.03 µM | 6.58 | – | – | – | – | –
10 | CC(C)(O)c1cccc2c(CCNc3ccc(Nc4ccnc5c4CCC5(C)O)cc3)c[nH]c12 (single isomer, unassigned) [Compound 30] | 7.04 | 6.02 | 7.19 | 0.10 µM | 6.14 | – | – | – | – | –
11 | Cc1cc(Nc2ccncc2)ccc1NCCc1c[nH]c2c(C(C)(C)O)cccc12 [Compound 2] | – | – | – | – | – | 0.0417 µM | 0.692 µM | 1.15 µM | – | 0.1 µM
12 | OCc1cccc2c(CCNc3ccc(Nc4ccnc5c4CCC5O)cc3)c[nH]c12 (stereo not shown) [Compound 6] | – | – | – | – | – | 0.214 µM | – | 9.33 µM | 4.07 µM | 1 µM
13 | Cc1cc(Nc2ccnc(CO)c2)ccc1NCCc1c[nH]c2c(C(C)(C)O)cccc12 [Compound 19] | 7.34 | 5.46 | – | 0.10 µM | 5.74 | – | – | – | – | –
14 | Cc1cc(Nc2ccnc3c2CCC3O)ccc1NCCc1c[nH]c2c(C(C)(C)O)cccc12 (stereo not shown) [Compound 20] | – | 5.72 | – | – | 5.73 | 0.0513 µM | – | – | – | 0.03 µM
15 | Cc1cc(Nc2ccncc2)ccc1NCCc1c[nH]c2c(C(O)C(C)C)cccc12 (stereo not shown) [Compound 22] | 6.26 | 5.09 | – | 3.00 µM | 5.07 | – | – | – | – | –
